According to US9290511B2, “Thieno-pyrimidines, useful as potassium channel inhibitors” (XENTION LIMITED, priority 2011, dated 2016):

target: T1, Kir3.1/3.4 (Rattus norvegicus, UniProt P48548+P63251); test: Kir3.1/3.4 Q-patch Method (automated patch clamp, Sophion Q-patch); assay type: cell-based; details: HEK293 cells stably-expressing Kir3.1/3.4; current at -120 mV; QPatch-16 or QPatch-48
T1 construct: expressed in transfected cells
T1 sequence (P63251 1-501): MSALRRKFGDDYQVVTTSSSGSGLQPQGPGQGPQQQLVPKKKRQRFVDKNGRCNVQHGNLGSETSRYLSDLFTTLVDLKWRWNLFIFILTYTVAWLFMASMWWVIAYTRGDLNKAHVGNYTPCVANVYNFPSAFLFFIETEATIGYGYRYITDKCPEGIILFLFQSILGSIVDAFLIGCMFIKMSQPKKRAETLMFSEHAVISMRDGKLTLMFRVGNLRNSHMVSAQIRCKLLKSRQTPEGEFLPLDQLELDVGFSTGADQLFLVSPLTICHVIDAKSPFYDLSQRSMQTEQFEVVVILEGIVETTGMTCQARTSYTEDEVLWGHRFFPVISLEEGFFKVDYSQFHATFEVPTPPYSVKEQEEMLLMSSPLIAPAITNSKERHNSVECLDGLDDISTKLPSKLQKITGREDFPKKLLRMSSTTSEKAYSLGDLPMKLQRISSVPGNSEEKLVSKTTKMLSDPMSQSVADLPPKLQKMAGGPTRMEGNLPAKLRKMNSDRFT
T1 sequence (P48548 1-419): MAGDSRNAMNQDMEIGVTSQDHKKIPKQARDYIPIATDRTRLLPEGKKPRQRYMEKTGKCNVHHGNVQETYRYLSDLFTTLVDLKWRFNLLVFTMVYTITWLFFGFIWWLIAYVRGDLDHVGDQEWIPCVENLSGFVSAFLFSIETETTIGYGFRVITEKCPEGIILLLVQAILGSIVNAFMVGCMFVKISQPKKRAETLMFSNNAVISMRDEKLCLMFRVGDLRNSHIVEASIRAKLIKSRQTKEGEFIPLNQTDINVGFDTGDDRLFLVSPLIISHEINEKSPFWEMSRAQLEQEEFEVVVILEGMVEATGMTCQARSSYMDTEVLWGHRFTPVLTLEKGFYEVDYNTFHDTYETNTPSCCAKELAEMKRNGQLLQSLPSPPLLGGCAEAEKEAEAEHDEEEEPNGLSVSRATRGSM
Experimental: For automated patch-clamp studies using the Sophion Q-patch, accumulative concentration-responses experiments were conducted to determine compound activity against the ion channel target. Voltage-clamp experiments were performed using HEK293 cells stably-expressing Kir3.1/3.4 using either a QPatch-16 or QPatch-48 (Sophion Bioscience A/S). A voltage waveform (VHold−20 mV, step to 60 mV for 100 ms, ramp to −120 mV over 500 ms, hold at −120 mV for 100 ms before returning to VHold) was repeatedly applied to the cells under voltage-clamp at a frequency of 0.1 Hz to elicit Kir3.1/3.4 currents. Mean current at −120 mV was measured in the absence (Icontrol) and presence of drug (IDrug). Assessment of passive leak was performed by removal of external potassium (IZero). Leak current was subtracted from control and drug recordings. Current inhibition (%) was calculated as {1−[(IDrug−IZero)/(IControl−IZero)]}*100. Data were fitted with a sigmoidal function to yield an IC50 and Hill coefficient. Composition of external experimental buffer was (in mM): 40 NaCl, 100 KCl, 5 CaCl2, 1 MgCl2, 10 HEPES pH 7.4. Composition of internal solution was (in mM). 40 K-gluconate, 60 KF, 20 NaCl, 5 Mg-ATP, 0.9 GTPgS, 20 EGTA, pH 7.2. Compounds were formulated in DMSO and diluted in buffer to give a final drug concentration of between […] and a final DMSO concentration of 0.1-0.3%.

Compound	IC50 [nM]
COc1ccccc1-c1csc2nc(N3CCCC(C(N)=O)C3)nc(N3C4CCC3COC4)c12 (stereo not shown) [Example 399, 1-[5-(2-methoxyphenyl)-4-(3-oxa-8-azabicyclo[3.2.1]octan-8-yl)thieno[2,3-d]pyrimidin-2-yl]piperidine-3-carboxamide]	500 to 3000
COc1ccccc1-c1csc2nc(N3C4CCC3CC(O)C4)nc(N3C4CCC3COC4)c12 (stereo not shown) [Example 400, 8-[5-(2-methoxyphenyl)-4-(3-oxa-8-azabicyclo[3.2.1]octan-8-yl)thieno[2,3-d]pyrimidin-2-yl]-8-azabicyclo[3.2.1]octan-3-ol]	500 to 3000
COc1ccccc1-c1csc2nc(N3CCC(C(N)=O)C3)nc(N3C4CCC3COC4)c12 (stereo not shown) [Example 401, 1-[5-(2-methoxyphenyl)-4-(3-oxa-8-azabicyclo[3.2.1]octan-8-yl)thieno[2,3-d]pyrimidin-2-yl]pyrrolidine-3-carboxamide]	500 to 3000
COc1ccccc1-c1csc2nc(N3C4CCC3COC4)nc(N3C4CCC3COC4)c12 [Example 402, 8-[5-(2-methoxyphenyl)-2-(3-oxa-8-azabicyclo[3.2.1]octan-8-yl)thieno[2,3-d]pyrimidin-4-yl]-3-oxa-8-azabicyclo[3.2.1]octane]	500 to 3000
COc1ccccc1-c1csc2nc(N3CCNC(=O)C3)nc(N3C4CCC3COC4)c12 [Example 403, 4-[5-(2-methoxyphenyl)-4-(3-oxa-8-azabicyclo[3.2.1]octan-8-yl)thieno[2,3-d]pyrimidin-2-yl]piperazin-2-one]	< 500
COc1ccccc1-c1csc2nc(N3CCC(O)C3)nc(N3C4CCC3COC4)c12 (stereo not shown) [Example 404, 1-[5-(2-methoxyphenyl)-4-(3-oxa-8-azabicyclo[3.2.1]octan-8-yl)thieno[2,3-d]pyrimidin-2-yl]pyrrolidin-3-ol]	< 500
COc1ccccc1-c1csc2nc(C#N)nc(N3C4CCC3CC(OC)C4)c12 (stereo not shown) [Example 405, 4-(3-methoxy-8-azabicyclo[3.2.1]octan-8-yl)-5-(2-methoxyphenyl)thieno[2,3-d]pyrimidine-2-carbonitrile]	500 to 3000
COCC1CC2CCC(C1)N2c1nc(C#N)nc2scc(-c3ccccc3OC)c12 (stereo not shown) [Example 406, 4-[3-(methoxymethyl)-8-azabicyclo[3.2.1]octan-8-yl]-5-(2-methoxyphenyl)thieno[2,3-d]pyrimidine-2-carbonitrile]	< 500
COc1ccccc1-c1csc2nc(N3C4CCC3CC(OC)C4)nc(N3C4CCC3CC(OC)C4)c12 (stereo not shown) [Example 407, 2,4-bis(3-methoxy-8-azabicyclo[3.2.1]octan-8-yl)-5-(2-methoxyphenyl)thieno[2,3-d]pyrimidine]	500 to 3000
COC1CC2CCC(C1)N2c1nc(N2CCOC(C(N)=O)C2)nc2scc(-c3ccccc3Cl)c12 (stereo not shown) [Example 408, 4-[5-(2-chlorophenyl)-4-(3-methoxy-8-azabicyclo[3.2.1]octan-8-yl)thieno[2,3-d]pyrimidin-2-yl]morpholine-2-carboxamide]	< 500
COc1ccccc1-c1csc2nc(N3CCOC(C(N)=O)C3)nc(N3C4CCC3CC(OC)C4)c12 (stereo not shown) [Example 409, 4-[4-(3-methoxy-8-azabicyclo[3.2.1]octan-8-yl)-5-(2-methoxyphenyl)thieno[2,3-d]pyrimidin-2-yl]morpholine-2-carboxamide]	500 to 3000
NC(=O)C1CCCN(c2nc(N3C4CCC3COC4)c3c(-c4ccccc4Cl)csc3n2)C1 (stereo not shown) [Example 410, 1-[5-(2-chlorophenyl)-4-(3-oxa-8-azabicyclo[3.2.1]octan-8-yl)thieno[2,3-d]pyrimidin-2-yl]piperidine-3-carboxamide]	500 to 3000
NC(=O)C1CCCN(c2nc(N3C4CCC3COC4)nc3scc(-c4ccccc4Cl)c23)C1 (stereo not shown) [Example 411, 1-[5-(2-chlorophenyl)-2-(3-oxa-8-azabicyclo[3.2.1]octan-8-yl)thieno[2,3-d]pyrimidin-4-yl]piperidine-3-carboxamide]	500 to 3000
NC(=O)C1CCN(c2nc(N3C4CCC3CC(O)C4)nc3scc(-c4ccccc4Cl)c23)C1 (stereo not shown) [Example 412, 1-[5-(2-chlorophenyl)-2-(3-hydroxy-8-azabicyclo[3.2.1]octan-8-yl)thieno[2,3-d]pyrimidin-4-yl]pyrrolidine-3-carboxamide]	500 to 3000
COc1ccccc1-c1csc2nc(N3C4CCC3CC(CO)C4)nc(N3CCNC(=O)C3)c12 (stereo not shown) [Example 413, 4-[2-[3-(hydroxymethyl)-8-azabicyclo[3.2.1]octan-8-yl]-5-(2-methoxyphenyl)thieno[2,3-d]pyrimidin-4-yl]piperazin-2-one]	< 500
COc1ccccc1-c1csc2nc(N3C4CCC3CC(O)C4)nc(N3CCC(C(N)=O)C3)c12 (stereo not shown) [Example 414, 1-[2-(3-hydroxy-8-azabicyclo[3.2.1]octan-8-yl)-5-(2-methoxyphenyl)thieno[2,3-d]pyrimidin-4-yl]pyrrolidine-3-carboxamide]	500 to 3000
NC(=O)C1CCN(c2nc(N3C4CCC3COC4)nc3scc(-c4ccccc4Cl)c23)C1 (stereo not shown) [Example 415, 1-[5-(2-chlorophenyl)-2-(3-oxa-8-azabicyclo[3.2.1]octan-8-yl)thieno[2,3-d]pyrimidin-4-yl]pyrrolidine-3-carboxamide]	500 to 3000
NC(=O)C1CN(c2nc(N3C4CCC3COC4)c3c(-c4ccccc4Cl)csc3n2)CCN1 (stereo not shown) [Example 416, 4-[5-(2-chlorophenyl)-4-(3-oxa-8-azabicyclo[3.2.1]octan-8-yl)thieno[2,3-d]pyrimidin-2-yl]piperazine-2-carboxamide]	< 500
NC(=O)C1CN(c2nc(N3C4CCC3COC4)nc3scc(-c4ccccc4Cl)c23)CCN1 (stereo not shown) [Example 417, 4-[5-(2-chlorophenyl)-2-(3-oxa-8-azabicyclo[3.2.1]octan-8-yl)thieno[2,3-d]pyrimidin-4-yl]piperazine-2-carboxamide]	500 to 3000
COc1ccccc1-c1csc2nc(N3CCOC(C(N)=O)C3)nc(N3C4CCC3COC4)c12 (stereo not shown) [Example 418, 4-[5-(2-methoxyphenyl)-4-(3-oxa-8-azabicyclo[3.2.1]octan-8-yl)thieno[2,3-d]pyrimidin-2-yl]morpholine-2-carboxamide]	500 to 3000
COc1ccccc1-c1csc2nc(N3C4CCC3COC4)nc(N3CCOC(C(N)=O)C3)c12 (stereo not shown) [Example 419, 4-[5-(2-methoxyphenyl)-2-(3-oxa-8-azabicyclo[3.2.1]octan-8-yl)thieno[2,3-d]pyrimidin-4-yl]morpholine-2-carboxamide]	< 500
NC(=O)C1CN(c2nc(N3C4CCC3COC4)c3c(-c4ccccc4Cl)csc3n2)CCO1 (stereo not shown) [Example 420, 4-[5-(2-chlorophenyl)-4-(3-oxa-8-azabicyclo[3.2.1]octan-8-yl)thieno[2,3-d]pyrimidin-2-yl]morpholine-2-carboxamide]	< 500
OC1CC2CCC(C1)N2c1nc(N2C3CCC2COC3)c2c(-c3ccccc3Cl)csc2n1 (stereo not shown) [Example 421, 8-[5-(2-chlorophenyl)-4-(3-oxa-8-azabicyclo[3.2.1]octan-8-yl)thieno[2,3-d]pyrimidin-2-yl]-8-azabicyclo[3.2.1]octan-3-ol]	< 500
NC(=O)C1CCN(c2nc(N3C4CCC3COC4)c3c(-c4ccccc4Cl)csc3n2)C1 (stereo not shown) [Example 422, 1-[5-(2-chlorophenyl)-4-(3-oxa-8-azabicyclo[3.2.1]octan-8-yl)thieno[2,3-d]pyrimidin-2-yl]pyrrolidine-3-carboxamide]	500 to 3000
Clc1ccccc1-c1csc2nc(N3C4CCC3COC4)nc(N3C4CCC3COC4)c12 [Example 423, 8-[5-(2-chlorophenyl)-2-(3-oxa-8-azabicyclo[3.2.1]octan-8-yl)thieno[2,3-d]pyrimidin-4-yl]-3-oxa-8-azabicyclo[3.2.1]octane]	500 to 3000
